Publication PMC8294059, “Identification and Immune Assessment of T Cell Epitopes in Five Plasmodium falciparum Blood Stage Antigens to Facilitate Vaccine Candidate Selection and Optimization” (Frontiers in Immunology, 2021)
Read-outs that look alike come from different tables or passages of the source. Where a SMILES comes first, the peptide text is derived from it.

How the values were obtained:
HLA-A*2402 = HLA-A*2402 (Homo sapiens, UniProt P04439, D101N/D140Y/D185E/E176V/E190D/F33S/G103R/G107R/I119L/I121M/I306V/K335N/L105A/L180Q/L300P/N151K/N90K/Q86E/Q94H/R106L/R138H/R89G/T104I/T345S/V100E/W191G/Y123F); experiment: In vitro class I HLA binding assay (fluorescence polarization competition); settings: allele A*2402
Method in brief: (§1)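 Cell-free competition assay: HLA heat-treated 53°C for 15 min to strip endogenous peptides, then mixed with fluorescent high-affinity control peptide and test peptides for 72 h to equilibrium. Displacement read by fluorescence polarization as percent inhibition; IC50 derived from a concentration range.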

HLA-A*0101 = HLA-A*0101 (Homo sapiens, UniProt P04439, A114D/A174V/A182V/D101N/D185E/E176A/E190D/L180R/Q94H/R68K/S129P/T187R/V100A/V91M/W191G); experiment: biochemical; assay type: binding; settings: allele A*0101, fluorescence polarization competition; for IC50: read-out: IC50 (nM), in vitro HLA binding affinity
Method in brief: as §1

HLA-A*0301 = HLA-A*0301 (Homo sapiens, UniProt P04439); experiment: biochemical; assay type: binding
Method in brief: as §1

HLA-A*0201 = HLA-A*0201 (Homo sapiens, UniProt P04439, D140Y/D185E/D98H/E176V/E277Q/G131W/G231S/I119V/I121R/I166T/I218V/L300P/L318F/N151K/N90K/P208A/P217A/Q86G/Q94H/R138H/R169H/T345S); experiment: In vitro class I HLA binding assay (fluorescence polarization competition); settings: allele A*0201; fluorescence polarization competition; read-out: IC50 (nM), in vitro HLA binding affinity
Method in brief: as §1

[1] = fluorescence polarization competition, read-out: IC50 (nM), in vitro HLA binding affinity
[2] = cell-free competition, fluorescence polarization at 72 hours, Non-binder = no dose-dependent inhibition, read-out: IC50
[3] = allele A*0301, fluorescence polarization competition, read-out: IC50 (nM), in vitro HLA binding affinity
[4] = allele A*0301, fluorescence polarization competition
[5] = allele A*0301, cell-free competition, fluorescence polarization at 72 hours, Non-binder = no dose-dependent inhibition, read-out: IC50

CSCC[C@H](NC(=O)[C@@H](N)CC(=O)O)C(=O)N[C@@H](CCCCN)C(=O)N[C@@H](CC(N)=O)C(=O)N[C@@H](Cc1ccc(O)cc1)C(=O)NCC(=O)N[C@H](C(=O)N[C@@H](CC(N)=O)C(=O)N[C@@H](CC(C)C)C(=O)N[C@@H](Cc1ccccc1)C(=O)O)[C@@H](C)O [RH5_331] (H-DMKNYGTNLF-OH)
IC50 (HLA-A*2402; [1]): 5310 nM

CC[C@H](C)[C@H](NC(=O)[C@@H](NC(=O)[C@H](Cc1ccc(O)cc1)NC(=O)[C@@H](NC(=O)[C@H](Cc1ccc(O)cc1)NC(=O)[C@H](CCCCN)NC(=O)[C@H](CC(N)=O)NC(=O)[C@H](CC(C)C)NC(=O)[C@H](Cc1ccc(O)cc1)NC(=O)[C@H](C)N)C(C)C)[C@@H](C)O)C(=O)O [RIPR_0063] (H-AYLNKYVYTI-OH)
IC50 (HLA-A*2402; [1]): 127 nM

GYNWGNYNTE [AMA1_396]
IC50 (nM), in vitro HLA binding affinity (HLA-A*2402; fluorescence polarization competition): Non-binder

CC(C)C[C@H](NC(=O)[C@H](CCCCN)NC(=O)[C@H](Cc1ccc(O)cc1)NC(=O)[C@@H](N)CC(N)=O)C(=O)NCC(=O)N[C@H](C(=O)N[C@@H](CCC(N)=O)C(=O)N[C@@H](Cc1ccc(O)cc1)C(=O)N[C@@H](Cc1ccccc1)C(=O)N[C@@H](Cc1ccccc1)C(=O)O)C(C)C [CYRPA_218] (H-NYKLGVQYFF-OH)
IC50 (HLA-A*2402; [1]): 26300 nM

CC(C)C[C@H](NC(=O)[C@H](CCCCN)NC(=O)[C@H](CCCCN)NC(=O)[C@H](CC(=O)O)NC(=O)[C@H](Cc1ccc(O)cc1)NC(=O)[C@H](CC(C)C)NC(=O)[C@H](CC(N)=O)NC(=O)[C@H](Cc1ccc(O)cc1)NC(=O)[C@@H](N)CCCNC(=N)N)C(=O)O [EBA175_1316] (H-RYNLYDKKL-OH)
IC50 (HLA-A*2402; [2]): 172 nM

C[C@@H](O)[C@H](NC(=O)[C@H](Cc1ccccc1)NC(=O)[C@H](Cc1ccc(O)cc1)NC(=O)[C@@H](N)CO)C(=O)N[C@@H](Cc1ccc(O)cc1)C(=O)N[C@@H](CC(=O)O)C(=O)N[C@@H](CO)C(=O)N[C@@H](CCC(=O)O)C(=O)N[C@@H](CCC(=O)O)C(=O)N[C@@H](Cc1ccc(O)cc1)C(=O)O [EBA175_1390] (H-SYFTYDSEEY-OH)
IC50 (HLA-A*2402; [2]): 22300 nM

CC[C@H](C)[C@H](NC(=O)[C@@H](N)CO)C(=O)N[C@@H](Cc1ccc(O)cc1)C(=O)N[C@@H](Cc1c[nH]cn1)C(=O)N[C@@H](CCCCN)C(=O)N[C@@H](CO)C(=O)N[C@@H](CO)C(=O)N[C@H](C(=O)N[C@@H](Cc1ccc(O)cc1)C(=O)O)[C@@H](C)O [RH5_192] (H-SIYHKSSTY-OH)
IC50 (nM), in vitro HLA binding affinity (HLA-A*0101): Non-Binder | IC50 (HLA-A*0301; [3]): 5930 nM

RTFKKMMDEY [RH5_298]
IC50 (nM), in vitro HLA binding affinity (HLA-A*0101): Non-Binder | IC50 (nM), in vitro HLA binding affinity (HLA-A*0301; [4]): Non-Binder

CC[C@H](C)[C@H](NC(=O)[C@H](CC(=O)O)NC(=O)[C@H](CC(N)=O)NC(=O)[C@H](CS)NC(=O)[C@H](CCCCN)NC(=O)[C@H](CO)NC(=O)[C@H](CCCCN)NC(=O)[C@@H](NC(=O)[C@@H](N)CCCCN)C(C)C)C(=O)N[C@@H](CCCCN)C(=O)O [RH5_219] (H-KVKSKCNDIK-OH)
IC50 (HLA-A*0301; [3]): 39300 nM

PSHNSFIKK [RH5_101]
IC50 (nM), in vitro HLA binding affinity (HLA-A*0301; [4]): Non-Binder

CC[C@H](C)[C@H](NC(=O)[C@H](Cc1ccccc1)NC(=O)[C@@H](NC(=O)[C@H](Cc1ccccc1)NC(=O)[C@@H](NC(=O)[C@@H](N)CCCCN)[C@@H](C)CC)[C@@H](C)O)C(=O)N[C@@H](CCC(=O)O)C(=O)N[C@@H](CC(N)=O)C(=O)N[C@@H](CCCCN)C(=O)O [EBA175_0058] (H-KIFTFIENK-OH)
IC50 (HLA-A*0301; [5]): 467 nM

NVNFLQYHFK [RH5_141]
IC50 (nM), in vitro HLA binding affinity (HLA-A*0301; [4]): Non-Binder

C[C@H](N)C(=O)N[C@H](C(=O)N[C@@H](CS)C(=O)N[C@@H](CCCCN)C(=O)N[C@@H](Cc1ccc(O)cc1)C(=O)NCC(=O)N[C@@H](Cc1ccccc1)C(=O)N[C@@H](CC(N)=O)C(=O)N[C@@H](CCCCN)C(=O)O)[C@@H](C)O [RIPR_0266] (H-ATCKYGFNK-OH)
IC50 (HLA-A*0301; [3]): 4750 nM

DLMNRTFKK [RH5_294]
IC50 (nM), in vitro HLA binding affinity (HLA-A*0301; [4]): Non-Binder

CC[C@H](C)[C@H](NC(=O)[C@H](CC(=O)O)NC(=O)[C@@H]1CCCN1C(=O)[C@H](CC(C)C)NC(=O)[C@@H](NC(=O)[C@@H](N)CO)[C@@H](C)CC)C(=O)N[C@@H](CC(N)=O)C(=O)N[C@@H](CCCCN)C(=O)N[C@@H](CO)C(=O)N[C@@H](CCCCN)C(=O)O [RIPR_0500] (H-SILPDINKSK-OH)
IC50 (HLA-A*0301; [3]): 12700 nM

CC(C)C[C@H](NC(=O)[C@@H]1CCCN1C(=O)[C@H](CC(C)C)NC(=O)[C@H](CO)NC(=O)[C@@H](NC(=O)[C@H](Cc1ccc(O)cc1)NC(=O)[C@H](CO)NC(=O)[C@H](CO)NC(=O)[C@@H](N)CC(C)C)C(C)C)C(=O)N[C@@H](CCCCN)C(=O)O [CYRPA_161] (H-LSSYVSLPLK-OH)
IC50 (HLA-A*0301; [3]): 654 nM

CC[C@H](C)[C@H](NC(=O)[C@H](Cc1ccc(O)cc1)NC(=O)[C@H](CCC(=O)O)NC(=O)[C@H](CC(=O)O)NC(=O)[C@H](CC(N)=O)NC(=O)[C@H](CC(C)C)NC(=O)[C@@H](N)[C@@H](C)O)C(=O)N[C@H](C(=O)N[C@@H](CO)C(=O)N[C@@H](Cc1ccc(O)cc1)C(=O)O)C(C)C [CYRPA_285] (H-TLNDEYIVSY-OH)
IC50 (HLA-A*0101): 213000 nM | IC50 (HLA-A*0301; [3]): 304000 nM

CC(C)C[C@H](NC(=O)[C@H](Cc1ccccc1)NC(=O)[C@H](C)NC(=O)[C@@H](N)CO)C(=O)N1CCC[C@H]1C(=O)N[C@H](C(=O)NCC(=O)N[C@@H](C)C(=O)N[C@@H](Cc1ccccc1)C(=O)N[C@@H](CCCCN)C(=O)O)[C@@H](C)O [AMA1_377] (H-SAFLPTGAFK-OH)
IC50 (HLA-A*0301; [3]): 345 nM

LSVKSKNLNK [RH5_369]
IC50 (nM), in vitro HLA binding affinity (HLA-A*0301; [4]): Non-Binder

CC[C@H](C)[C@H](NC(=O)[C@H](CO)NC(=O)[C@@H](N)CC(N)=O)C(=O)N[C@@H](Cc1ccc(O)cc1)C(=O)N[C@@H](Cc1c[nH]cn1)C(=O)N[C@@H](CCCCN)C(=O)N[C@@H](CO)C(=O)N[C@@H](CO)C(=O)N[C@H](C(=O)N[C@@H](Cc1ccc(O)cc1)C(=O)O)[C@@H](C)O [RH5_191] (H-NSIYHKSSTY-OH)
IC50 (nM), in vitro HLA binding affinity (HLA-A*0101): Non-Binder | IC50 (HLA-A*0301; [3]): 101000 nM

CC[C@H](C)[C@H](NC(=O)[C@@H](N)Cc1ccccc1)C(=O)N[C@@H](CO)C(=O)N[C@@H](CC(=O)O)C(=O)N[C@@H](CC(=O)O)C(=O)N[C@@H](CCCCN)C(=O)N[C@@H](CC(=O)O)C(=O)N[C@@H](CO)C(=O)N[C@@H](CC(C)C)C(=O)N[C@@H](CCCCN)C(=O)O [AMA1_480K] (H-FISDDKDSLK-OH)
IC50 (HLA-A*0301): 697000 nM

CC[C@H](C)[C@H](NC(=O)[C@H](Cc1ccc(O)cc1)NC(=O)[C@@H](NC(=O)[C@H](Cc1ccc(O)cc1)NC(=O)[C@H](CO)NC(=O)CN)[C@@H](C)CC)C(=O)N[C@@H](CC(=O)O)C(=O)N[C@H](C(=O)N[C@H](C(=O)N[C@@H](CCCCN)C(=O)O)[C@@H](C)CC)[C@@H](C)O [RH5_402] (H-GSYIYIDTIK-OH)
IC50 (HLA-A*0301; [3]): 70800 nM

CC(C)C[C@H](NC(=O)[C@H](Cc1c[nH]cn1)NC(=O)[C@H](CCCCN)NC(=O)[C@H](Cc1ccc(O)cc1)NC(=O)[C@H](Cc1ccc(O)cc1)NC(=O)[C@H](CC(=O)O)NC(=O)[C@H](CC(C)C)NC(=O)[C@@H](N)Cc1ccccc1)C(=O)N[C@@H](CO)C(=O)N[C@@H](Cc1ccc(O)cc1)C(=O)O [RH5_181] (H-FLDYYKHLSY-OH)
IC50 (HLA-A*0101): 646 nM | IC50 (nM), in vitro HLA binding affinity (HLA-A*0301; [4]): Non-Binder

CC[C@H](C)[C@H](NC(=O)[C@H](CC(=O)O)NC(=O)[C@@H](NC(=O)[C@H](Cc1c[nH]cn1)NC(=O)[C@H](CO)NC(=O)[C@H](CC(C)C)NC(=O)[C@@H](N)CCCNC(=N)N)[C@@H](C)O)C(=O)N[C@@H](Cc1c[nH]cn1)C(=O)N[C@@H](CCCCN)C(=O)O [EBA175_1214] (H-RLSHTDIHK-OH)
IC50 (HLA-A*0301; [5]): 1740 nM

CSCC[C@H](NC(=O)[C@H](CCSC)NC(=O)[C@@H](N)CCCCN)C(=O)N[C@@H](CC(=O)O)C(=O)N[C@@H](CCC(=O)O)C(=O)N[C@@H](Cc1ccc(O)cc1)C(=O)N[C@@H](CC(N)=O)C(=O)N[C@H](C(=O)N[C@@H](CCCCN)C(=O)N[C@@H](CCCCN)C(=O)O)[C@@H](C)O [RH5_302] (H-KMMDEYNTKK-OH)
IC50 (HLA-A*0301; [3]): 8480 nM | IC50 (HLA-A*0201): 511000 nM

CC[C@H](C)[C@H](NC(=O)[C@H](CO)NC(=O)[C@H](CC(N)=O)NC(=O)[C@H](Cc1ccc(O)cc1)NC(=O)[C@H](CO)NC(=O)[C@H](CC(C)C)NC(=O)[C@@H](N)Cc1c[nH]cn1)C(=O)N[C@@H](Cc1ccc(O)cc1)C(=O)N[C@@H](Cc1c[nH]cn1)C(=O)N[C@@H](CCCCN)C(=O)O [RH5_187] (H-HLSYNSIYHK-OH)
IC50 (HLA-A*0301; [3]): 44200 nM

C[C@@H](O)[C@H](NC(=O)[C@@H](N)CO)C(=O)N[C@@H](CS)C(=O)N[C@@H](Cc1ccc(O)cc1)C(=O)NCC(=O)N[C@@H](CC(N)=O)C(=O)N[C@@H](CCCNC(=N)N)C(=O)N[C@@H](Cc1ccccc1)C(=O)N[C@@H](CC(N)=O)C(=O)N[C@@H](Cc1ccc(O)cc1)C(=O)O [RIPR_0648] (H-STCYGNRFNY-OH)
IC50 (HLA-A*0101): 54000 nM | IC50 (nM), in vitro HLA binding affinity (HLA-A*0301; [4]): Non-binder
